From article PMC6683083, “Lupin Peptide T9 (GQEQSHQDEGVIVR) Modulates the Mutant PCSK9^D374Y Pathway: in vitro Characterization of its Dual Hypocholesterolemic Behavior” (Nutrients, 2019)
Entries after “also recorded” stand apart in the source; their conditions may differ.

How the values were obtained:
intestinal peptidases = conditions: ref [13]; cited from earlier work
From the text: (§1) GQEQSHQDEGVIVR (T9) is a peptide, deriving from the hydrolysis of β-conglutin with trypsin, showing a pI of 4.3, a hydrophobicity value of 25.97 Kcal mol^−1, and a net charge of −2 at pH 7.0. Its 14-aminoacids sequence comprises a polar negatively charged N-terminal, containing a glutamate residue, and a nonpolar positively charged C-terminal, containing an arginine residue. […] Two previous in silico studies have predicted the potential ...

[1] = tested on: human intestinal Caco-2 cells; conditions: human intestinal Caco-2 cells / enterocytes; ref [13]; cited from earlier work
From the text: as §1, with “A previous study has shown that T9 impairs the protein–protein interaction between mutant D374Y Proprotein Convertase Subtilisin/Kexin 9 (PCSK9^D374Y) and the low-density lipoprotein receptor (LDLR), thus exerting a hypocholesterolemic effect. […] The present ... || GQEQSHQDEGVIVR” for “GQEQSHQDEGVIVR”

HMGCoAR = target: T1, HMGCoAR (Homo sapiens, UniProt P04035); experiment: In vitro HMGCoAR activity assay (Sigma kit); format: biochemical; conditions: 10^−5 to 10^−3 M; 37 °C; NADPH oxidation, absorbance at 340 nm, 0 and 10 min; means ± SD
T1 construct: purchased Sigma (Sigma-Aldrich, St. Louis, MO, USA)
T1 sequence (P04035 426-888 limits assumed): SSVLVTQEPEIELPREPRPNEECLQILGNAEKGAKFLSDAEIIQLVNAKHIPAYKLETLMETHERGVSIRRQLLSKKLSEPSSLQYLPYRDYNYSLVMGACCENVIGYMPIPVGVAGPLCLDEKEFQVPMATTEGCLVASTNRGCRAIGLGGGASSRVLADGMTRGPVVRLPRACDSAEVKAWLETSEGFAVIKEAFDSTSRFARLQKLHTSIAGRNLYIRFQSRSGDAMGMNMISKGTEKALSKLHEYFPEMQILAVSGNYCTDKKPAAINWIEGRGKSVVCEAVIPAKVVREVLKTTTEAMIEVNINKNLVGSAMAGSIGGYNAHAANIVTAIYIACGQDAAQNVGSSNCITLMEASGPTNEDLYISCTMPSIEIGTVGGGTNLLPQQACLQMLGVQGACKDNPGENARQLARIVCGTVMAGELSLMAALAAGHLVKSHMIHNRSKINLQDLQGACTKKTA
Experimental: The assay buffer, NADPH, substrate solution, and HMGCoAR were provided in the HMGCoAR Assay Kit (Sigma). The experiments were carried out as previously described. See Supplementary Materials for further details.
In vitro experiments were performed in order to confirm the in silico study according to which T9 was a potential inhibitor of the HMGCoAR activity. Peptide concentrations ranging from 10^−5 to 10^−3 M were tested.
Brief description of material and methods
Dulbecco’s modified Eagle’s medium (DMEM), stable L-glutamine, fetal bovine serum (FBS), phosphate buffered saline (PBS), penicillin/streptomycin, chemiluminescent reagent, and 96-well plates were purchased from Euroclone (Milan, Italy). […]
The assay buffer, NADPH, substrate solution, and HMGCoAR were provided in the HMGCoAR Assay Kit (Sigma). […] The absorbance at time 0 and 10 min were recorded. The HMGCoAR-dependent oxidation of NADPH and the inhibition properties of lupin peptides were measured by the absorbance reduction at 340 nm read by a microplate reader […]
Transfected HepG2 cells (1.5 × 10^5 cells/well) were treated with 100 μM T9 for 24 h. […] After centrifugation at 16,060 g for 15 min at 4 °C, the supernatant was recovered and total proteins were quantified by the Bradford method. […]

CC[C@H](C)[C@H](NC(=O)[C@@H](NC(=O)CNC(=O)[C@H](CCC(=O)O)NC(=O)[C@H](CC(=O)O)NC(=O)[C@H](CCC(N)=O)NC(=O)[C@H](Cc1cnc[nH]1)NC(=O)[C@H](CO)NC(=O)[C@H](CCC(N)=O)NC(=O)[C@H](CCC(=O)O)NC(=O)[C@H](CCC(N)=O)NC(=O)CN)C(C)C)C(=O)N[C@H](C(=O)N[C@@H](CCCNC(=N)N)C(=O)O)C(C)C [T9]
stability to metabolic degradation operated by intestinal peptidases (in words) (intestinal peptidases): stable to the metabolic degradation operated by intestinal peptidases | intestinal absorption (in words) [1]: absorbed in human intestinal Caco-2 cells; also recorded: absorbed by enterocytes | IC50 (HMGCoAR): 99.5 ± 0.56 µM
